Tests used:
Test in all cases: combination Emax (second highest fraction inhibited in the dose matrix, 72 h); higher = more inhibition; extreme values may be limits of the assay
ES-2 (Ovarian Carcinoma) = tested on: ES-2 (Ovarian Carcinoma)
In short: (§1)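 After 24 hours at 37°C and 5% CO2 in 1536-well plates, cells in DMEM/F12 or RPMI plus 10% FBS received two-drug dose matrices for 72 hours. Viability came from CellTiter-Glo 2.0 luminescence and was scaled as inhibition, anchored at 0 by vehicle wells and at 1 by blank wells. Combination Emax is taken as the second-highest inhibition in the matrix, and Bliss excess as the observed combination effect less EA + EB − EA·EB, with EA and EB the single-agent effects.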

[1] = tested on: OCI-AML5 (Acute Myeloid Leukemia)
In short: as §1

[2] = tested on: Calu-6 (Non-Small Cell Lung Carcinoma)
In short: as §1

[3] = tested on: COLO-684 (Endometrial Carcinoma)
In short: as §1

[4] = tested on: AN3-CA (Endometrial Carcinoma)
In short: as §1

[5] = tested on: HTC-C3 (Thyroid Gland Carcinoma)
In short: as §1

[6] = tested on: NCI-H810 (Non-Small Cell Lung Carcinoma)
In short: as §1

[7] = tested on: NCI-H1563 (Lung Adenocarcinoma)
In short: as §1

[8] = tested on: EB-3 (Burkitt's Lymphoma)
In short: as §1

CHL-1 (Melanoma) = tested on: CHL-1 (Melanoma)
In short: as §1

[9] = tested on: NKM-1 (Acute Myeloid Leukemia)
In short: as §1

[10] = tested on: SK-MM-2 (Plasma Cell Myeloma)
In short: as §1

[11] = tested on: BALL-1 (B-Lymphoblastic Leukemia)
In short: as §1

[12] = tested on: NCI-H196 (Small Cell Lung Carcinoma)
In short: as §1

786-0 (Kidney Carcinoma) = tested on: 786-0 (Kidney Carcinoma)
In short: as §1

[13] = tested on: NCI-H1755 (Lung Adenocarcinoma)
In short: as §1

KYM-1 (Rhabdomyosarcoma) = tested on: KYM-1 (Rhabdomyosarcoma)
In short: as §1

[14] = tested on: LOUCY (T-Lymphoblastic Leukemia)
In short: as §1

[15] = tested on: FLO-1 (Esophageal Adenocarcinoma)
In short: as §1

[16] = tested on: SNU-175 (Colorectal Carcinoma)
In short: as §1

SMILES | combination Emax (ES-2 (Ovarian Carcinoma)) | combination Emax [1] | combination Emax [2] | combination Emax [3] | combination Emax [4] | combination Emax [5] | combination Emax [6] | combination Emax [7] | combination Emax [8] | combination Emax (CHL-1 (Melanoma)) | combination Emax [9] | combination Emax [10] | combination Emax [11] | combination Emax [12] | combination Emax (786-0 (Kidney Carcinoma)) | combination Emax [13] | combination Emax (KYM-1 (Rhabdomyosarcoma)) | combination Emax [14] | combination Emax [15] | combination Emax [16]
COc1cccc(OCCCN)c1-c1cc(Nc2cnc(C#N)cn2)n[nH]1 [Prexasertib] + C[C@@H]1COCCN1C2=NC(=NC(=C2)C3(CC3)[S@](=N)(=O)C)C4=C5C=CNC5=NC=C4 [AZD6738] (first compound max 1 µM, 7x7, partner max 10 µM) | 0.867 | 0.988 | 0.772 | 0.864 | 0.821 | 0.842 | 0.9 | 0.262 | 0.83 | 0.884 | 0.938 | 0.634 | 0.998 | 0.566 | 0.901 | 0.912 | 0.956 | 1 | 0.763 | 0.616
CN(CCO)CC[C@H](CSc1ccccc1)Nc1ccc(S(=O)(=O)NC(=O)c2ccc(N3CCC([C@@H](O)c4ccccc4-c4ccc(Cl)cc4)CC3)cc2)cc1S(=O)(=O)C(F)(F)F [AZD4320] + C[C@@H](Nc1cc(F)cc(F)c1)c1cc(C(=O)N(C)C)cc2c(=O)cc(N3CCOCC3)oc12 [AZD8186] (first compound max 1 µM, 7x7, partner max 3 µM) | 0.334 | 1 | 0.592 | 0.396 | 0.624 | 0.407 | 0.592 | 0.565 | 0.332 | 0.408 | 1 | 1 | 1 | 0.517 | 0.415 | 0.45 | 0.197 | 1 | 0.486 | 0.908
NC1(C(=O)N[C@@H](CCO)c2ccc(Cl)cc2)CCN(c2ncnc3[nH]ccc23)CC1 [Capivasertib] + Cn1cnc2c(F)c(Nc3ccc(Br)cc3Cl)c(C(=O)NOCCO)cc21 [Selumetinib] (first compound max 10 µM, 7x7, partner max 10 µM) | 0.616 | 0.951 | 0.707 | 0.63 | 0.815 | 0.772 | 0.139 | 0.4 | 0.325 | 0.367 | 0.965 | 0.36 | 0.478 | 0.281 | 0.696 | 0.644 | 0.52 | 0.66 | 0.559 | 0.534
Cc1c2c(nn1C)CSCc1cc(n(C)n1)CSc1cc(c3ccccc3c1)OCCCc1c(C(=O)O)n(C)c3c-2c(Cl)ccc13 [AZD5991] + Cc1cc2ncnn2cc1Nc1ncc2c(n1)n(C1CCOCC1)c(=O)n2C [AZD7648] (first compound max 1 µM, 7x7, partner max 10 µM) | 0.313 | 1 | 0.29 | 0.315 | 0.654 | 0.245 | 0.514 | 0.701 | 0.456 | 0.346 | 0.984 | 0.375 | 0.556 | 0.219 | 0.251 | 0.418 | 0.265 | 0.82 | 0.489 | 0.461
CN(C)CCCOc1ccc(-c2ccc3ncc4c(c3c2)n(C2CCOCC2)c(=O)n4C)cn1 [AZD0156] + C[C@@H]1COCCN1C2=NC(=NC(=C2)C3(CC3)[S@](=N)(=O)C)C4=C5C=CNC5=NC=C4 [AZD6738] (first compound max 1 µM, 7x7, partner max 10 µM) | 0.808 | 0.917 | 0.777 | 0.812 | 0.491 | 0.823 | 0.762 | 0.385 | 0.763 | 0.798 | 0.814 | 0.625 | 0.986 | 0.292 | 0.641 | 0.816 | 0.786 | 1 | 0.691 | 0.49
CCN(CCO)CCCOc1ccc2c(Nc3cc(CC(=O)Nc4cccc(F)c4)[nH]n3)ncnc2c1 [AZD2811] + C[C@@H]1COCCN1C2=NC(=NC(=C2)C3(CC3)[S@](=N)(=O)C)C4=C5C=CNC5=NC=C4 [AZD6738] (first compound max 1 µM, 7x7, partner max 10 µM) | 0.728 | 0.983 | 0.767 | 0.748 | 0.48 | 0.858 | 0.738 | 0.206 | 0.644 | 0.805 | 0.879 | 0.533 | 0.984 | 0.276 | 0.714 | 0.788 | 0.762 | 1 | 0.6 | 0.578
CN(CCO)CC[C@H](CSc1ccccc1)Nc1ccc(S(=O)(=O)NC(=O)c2ccc(N3CCC([C@@H](O)c4ccccc4-c4ccc(Cl)cc4)CC3)cc2)cc1S(=O)(=O)C(F)(F)F [AZD4320] + C1CN(CCC1(C(=O)N[C@@H](CCO)C2=CC=C(C=C2)Cl)N)C3=NC=NC4=C3C=CN4 [Capivasertib] (first compound max 1 µM, 7x7, partner max 3 µM) | 0.131 | 1 | 0.448 | 0.447 | 0.625 | 0.207 | 0.482 | 0.389 | 0.191 | 0.0871 | 1 | 1 | 1 | 0.175 | 0.402 | 0.303 | 0.0568 | 1 | 0.343 | 0.501
Cn1cnc2c(F)c(Nc3ccc(Br)cc3Cl)c(C(=O)NOCCO)cc21 [Selumetinib] + C=CCn1c(=O)c2cnc(Nc3ccc(N4CCN(C)CC4)cc3)nc2n1-c1cccc(C(C)(C)O)n1 [AZD1775] (first compound max 10 µM, partner max 1 µM) | 0.66 | 0.944 | 0.855 | 0.708 | 0.354 | 0.691 | 0.542 | 0.303 | 0.703 | 0.572 | 0.875 | 0.236 | 1 | 0.347 | 0.572 | 0.776 | 0.591 | 0.977 | 0.792 | 0.718
CC1(C)CCC(CN2CCN(c3ccc(C(=O)NS(=O)(=O)c4ccc(NCC5CCOCC5)c([N+](=O)[O-])c4)c(Oc4cnc5[nH]ccc5c4)c3)CC2)=C(c2ccc(Cl)cc2)C1 [Venetoclax] + C[C@@H](Nc1cc(F)cc(F)c1)c1cc(C(=O)N(C)C)cc2c(=O)cc(N3CCOCC3)oc12 [AZD8186] (first compound max 1 µM, 7x7, partner max 3 µM) | 0.159 | 1 | 0.125 | 0.529 | 0.457 | 0.149 | 0.0592 | 0.431 | 0.198 | 0.147 | 1 | 1 | 1 | 0.218 | 0.267 | 0.588 | 0.162 | 1 | 0.543 | 0.171
CN(CCO)CC[C@H](CSc1ccccc1)Nc1ccc(S(=O)(=O)NC(=O)c2ccc(N3CCC([C@@H](O)c4ccccc4-c4ccc(Cl)cc4)CC3)cc2)cc1S(=O)(=O)C(F)(F)F [AZD4320] + C=CCn1c(=O)c2cnc(Nc3ccc(N4CCN(C)CC4)cc3)nc2n1-c1cccc(C(C)(C)O)n1 [AZD1775] (first compound max 1 µM, partner max 1 µM) | 0.722 | 1 | 0.928 | 0.763 | 0.468 | 0.742 | 0.954 | 0.26 | 0.681 | 0.703 | 1 | 1 | 1 | 0.671 | 0.715 | 0.854 | 0.617 | 1 | 0.977 | 0.717
C[C@@H]1COCCN1c1cc(C2([S@](C)(=N)=O)CC2)nc(-c2ccnc3[nH]ccc23)n1 [AZD6738] + O=C(c1cc(Cc2n[nH]c(=O)c3ccccc23)ccc1F)N1CCN(C(=O)C2CC2)CC1 [Olaparib] (first compound max 10 µM, 7x7, partner max 10 µM) | 0.662 | 0.907 | 0.684 | 0.685 | 0.577 | 0.83 | 0.766 | 0.223 | 0.617 | 0.577 | 0.902 | 0.572 | 0.983 | 0.347 | 0.679 | 0.793 | 0.792 | 0.974 | 0.75 | 0.532
CN(CCO)CC[C@H](CSc1ccccc1)Nc1ccc(S(=O)(=O)NC(=O)c2ccc(N3CCC([C@@H](O)c4ccccc4-c4ccc(Cl)cc4)CC3)cc2)cc1S(=O)(=O)C(F)(F)F [AZD4320] + CN(C)CCCOc1ccc(-c2ccc3ncc4c(c3c2)n(C2CCOCC2)c(=O)n4C)cn1 [AZD0156] (first compound max 1 µM, 7x7, partner max 1 µM) | 0.15 | 1 | 0.395 | 0.148 | 0.27 | 0.37 | 0.453 | 0.321 | 0.387 | 0.113 | 1 | 1 | 1 | 0.171 | 0.0619 | 0.229 | 0.14 | 1 | 0.386 | 0.467

Reference: the supplement of paper PMC11061612
